The values that follow come from EP0433662A2, “Acat inhibitors” (WARNER-LAMBERT COMPANY, priority 1989, dated 1991).

The target in assay [1] is acyl-CoA: cholesterol acyltransferase (ACAT). As to the kind of experiment: In vitro ACAT inhibition: radiolabeled cholesterol oleate formed from radiolabeled oleic acid in rabbit intestinal microsomes. Format: biochemical. To be noted: tissue preparation containing rabbit intestinal microsomes; concentration required to inhibit the activity of the enzyme by 50%. Here is the method: The ability of representative compounds of the present invention to inhibit ACAT was measured using an in vitro test more fully described in F. J. Field and R. G. Salone, Biochemica et Biophysica 712:557-570 (1982). The test assesses the ability of a test compound to inhibit the acylation of cholesterol by oleic acid by measuring the amount of radiolabeled cholesterol oleate formed from radiolabeled oleic acid in a tissue preparation containing rabbit intestinal microsomes.
The data appear in Table 1 where they are expressed as ICso values; i.e., the concentration of test compound required to inhibit the activity of the enzyme by 50%.

For assay [2], the system named is male Sprague-Dawley rats. Description: In vivo screen APCC: blood cholesterol in rats fed PCC diet overnight. The note with it: blood cholesterol versus vehicle (CMC/Tween); dosed at 4 PM, PCC diet with 1 % or 0.5% cholic acid overnight, sacrificed at 8 AM; dose not given. The source says:
In one in vivo screen designated APCC, male Sprague-Dawley rats (200 to 225 g) were randomly divided into treatment groups and dosed at 4 PM with either vehicle (CMC/Tween) or suspensions of compounds in vehicle. The normal chow diet was then replaced with the PCC diet with either 1 % or 0.5% cholic acid, as indicated. The rats consumed this diet ad libitum during the night and were sacrificed at 8 AM to obtain blood samples for cholesterol analysis using standard procedures. Statistical differences between mean cholesterol values for the same vehicle were determined using analysis of variance followed by Fisher's least significant test.

The IC50 is the concentration that gives 50% inhibition. A low value points to higher potency. As for `CC(C)c1cccc(C(C)C)c1NC(=O)CC(=O)N(C(C)C)C(c1ccccc1)c1ccccc1` [N'-[2,6-bis(1-methylethyl)-phenyl]-N-(diphenylmethyl)-N-(1-methylethyl)propanediamide], the concentration for half-maximal inhibition (IC50) in assay [1] came to 20 nM. Also, in assay [2], the “% Change (mg/dl)” value is reported as -41%.
`CC(C)c1cccc(C(C)C)c1NC(=O)CC(=O)NCC1(c2ccccc2)CCCC1` [N-[2,6-bis(1-methylethyl)-phenyl]-N'-(1-phenylcyclo-pentyl)methylpropanediamide] had an IC50 in assay [1] of 990 nM. Also, the “% Change (mg/dl)” value in assay [2] is on record as “+7%”.
In assay [1], `CC(C)c1cccc(C(C)C)c1NC(=O)CC(=O)NCC(c1ccccc1)c1ccccc1` [N-[2,6-Bis(1-methylethyl)phenyl]-N'-(2,2-diphenylethyl)propanediamide] showed a 50% inhibitory concentration (IC50) of 770 nM.
`CC(C)c1cccc(C(C)C)c1NC(=O)CC(=O)N(Cc1ccccc1)Cc1ccccc1` [N'-[2,6-bis(1-methylethyl)-phenyl]-N,N-bis(phenylmethyl)-propanediamide] had a 50% inhibitory concentration (IC50) in assay [1] of 13 nM. Also, in assay [2], the “% Change (mg/dl)” value was -42%.
The like results for `CC(C)c1cccc(C(C)C)c1NC(=O)CC(=O)NC(c1ccccc1)c1ccccc1` [N-[2,6-bis(1-methylethyl)-phenyl-N'-(diphenylmethyl)-propanediamide] were, in that order, 490 nM and -20%.
